Where “and” joins values, the source holds several entries; their conditions need not be identical. Equal values may be shown once. Read-outs that look alike come from different tables or passages of the source.
Test: Plasma HFPO-TeA dosimetry
Format: in vivo, Sprague Dawley rats
Description: Whole blood was collected from the retro-orbital plexus under isoflurane anesthesia 2 h following the first dose and by cardiac puncture 24 h after the last dosage. Blood was stored in anticoagulant potassium ethylenediaminetetraacetic acid (K3EDTA)-coated vacutainers, and then processed to isolate plasma via centrifugation. Animals were euthanized via carbon dioxide asphyxiation and subsequent exsanguination. Liver was collected, weighed, cubed, and divided into three aliquots. One aliquot of tissue was flash-frozen in liquid nitrogen and stored at −80 °C for analytical chemistry analyses. The remaining two aliquots were placed in RNALater and frozen for use in the companion transcriptomic study. Liver and plasma samples were received at the U.S. EPA Center for Computational Toxicology and Exposure, Advanced Analytical Chemistry Methods Branch in Research Triangle Park, North Carolina, USA, and stored at −80 °C prior to extraction.
Detailed information on the procedure, chemicals, and materials used in the plasma HFPO-TeA dosimetry work can be found in Supplementary Text S4 and Table S3. Plasma preparation (2 h and 5 days) was modified from Conley et al.’s work and is detailed in Supplementary Text S4 [45]. Briefly, aliquots (25 µL) were mixed with methanol (MeOH) and water (H2O) containing 0.1 M FA, spiked with the internal standard perfluorohexadecanoic acid (PFHxDA), and then denatured plasma proteins were precipitated using ACN. Samples were held at −20 °C then centrifuged for separation of the supernatant. Supernatants were collected and stored at −20 °C prior to analysis.
Targeted analysis of HFPO-TeA was conducted on a Sciex X500R QTOF liquid chromatography/mass spectrometer system operated in high-resolution MRM negative ion ESI mode. A Phenomenex C18 column (Kinetex XB-C18, 100 × 2.1 mm, particle size 2.6 µm) was used for chromatographic separation with the flow rate set to 0.2 mL/min and a temperature of 40 °C. […] Ammonium formate (4 mM) was added to both eluents. Additional details of the instrument parameters are provided in Table S8 and monitored transitions in Table S9. Matrix blanks were analyzed with each sample set. Statistical analysis is described in Supplementary Text S3. Normalization calculations are described in Supplementary Text S5 [47, 48].
All in vivo results values are reported as mean ± one standard deviation (SD). Statistical evaluation of in vivo data was conducted using a two-way analysis of variance (ANOVA) and Dunnett’s Test, both at α = 0.05 significance level, on GraphPad Prism v9.5.1.
Support ing Text S4: Plasma Dosimetry Chemicals, Materials, and Analysis Sprague Dawley rodent plasma (pooled, mixed sex) collected with ethylenediaminetetraacetic acid (EDTA) and sterile filtered (0.2 µm) was obtained from BioIVT (Westbury, NY, USA) and stored at -80 °C until use as the control matrix for generating calibration curves and as the matrix blank during plasma sample analysis. The HFPO-TeA (98.97% pure) used for calibration curve preparation was obtained from Oakwood Products Inc. (West Columbia, South Carolina, USA). Unlabeled perfluorohexadecanoic acid (CASRN 67905-19-5 | DTXSID1070800 | PFHxDA; ≥ 98% pure) was obtained from Cambridge Isotope Laboratories (Tewksbury, MA, USA) to serve as the internal standard since a labeled HFPO-TeA standard was not commercially available.
Aliquots (25 µL) were denatured with MeOH and H2O containing 0.1 M FA and then crashed using ACN. Volumes of MeOH, FA, and ACN were determined by the anticipated sample concentrations of […]
HFPO-TeA/mL plasma = 100 µL MeOH + 875 µL FA then 50 µL subsample removed and crashed with 950 µL ACN. Anticipated sample ranges were intentionally overlapped to account for HFPO-TeA concentration differences due to biological variability among the dose groups. The internal standard PFHxDA was added prior to the ACN crash. Samples were vortexed after the addition of each solvent. […]

## O=C(O)C(F)(OC(F)(F)C(F)(OC(F)(F)C(F)(OC(F)(F)C(F)(F)C(F)(F)F)C(F)(F)F)C(F)(F)F)C(F)(F)F (stereo not drawn) [HFPO-TeA, perfluoro-(2,5,8-trimethyl-3,6,9-trioxadodecanoic) acid]
0.3 mg/kg/day, F, 2 hours, individual rats
  Plasma Conc.: 0.124 µg/mL and 0.187 µM and 0.0778 µg/mL and 0.117 µM and 0.0785 µg/mL and 0.119 µM
0.3 mg/kg/day, F, 5 days of exposure, mean ± SD n=4
  5D Plasma Conc.: 0.854 ± 0.086 µM
0.3 mg/kg/day, F, 5 days, individual rats
  Plasma Conc.: 0.492 µg/mL and 0.743 µM and 0.622 µg/mL and 0.939 µM
0.3 mg/kg/day, M, 2 hours, individual rats
  Plasma Conc.: 0.094 µg/mL and 0.142 µM and 0.086 µg/mL and 0.129 µM and 0.101 µg/mL and 0.153 µM
0.3 mg/kg/day, M, 5 days of exposure, mean ± SD n=4
  5D Plasma Conc.: 0.827 ± 0.071 µM
0.3 mg/kg/day, M, 5 days of exposure, mean ± SD n=4, read-out: 5D Plasma Conc.
  concentration at 5 days: 827 nM
0.3 mg/kg/day, M, 5 days, individual rats
  Plasma Conc.: 0.586 µg/mL and 0.885 µM and 0.567 µg/mL
0.9 mg/kg/day, F, 2 hours, individual rats
  Plasma Conc.: 0.309 µg/mL and 0.467 µM and 0.418 µg/mL and 0.631 µM and 0.392 µg/mL and 0.592 µM
0.9 mg/kg/day, M, 2 hours, individual rats
  Plasma Conc.: 0.291 µg/mL and 0.439 µM and 0.450 µg/mL and 0.679 µM and 0.345 µg/mL and 0.521 µM
0.9 mg/kg/day, M, 5 days of exposure, mean ± SD n=4
  5D Plasma Conc.: 2.73 ± 0.45 µM
0.9 mg/kg/day, M, 5 days of exposure, mean ± SD n=4, read-out: 5D Plasma Conc.
  concentration at 5 days: 2730 nM
0.9 mg/kg/day, M, 5 days, individual rats
  Plasma Conc.: 1.45 µg/mL and 2.19 µM and 2.16 µg/mL and 3.26 µM and 1.75 µg/mL and 2.65 µM
2.3 mg/kg/day, F, 2 hours, individual rats
  Plasma Conc.: 6.87 µg/mL and 10.4 µM and 7.78 µg/mL and 11.7 µM and 10.8 µg/mL and 16.3 µM and 14.6 µg/mL and 22.1 µM
2.3 mg/kg/day, M, 2 hours, individual rats
  Plasma Conc.: 11.4 µg/mL and 17.3 µM and 8.06 µg/mL and 12.2 µM and 7.45 µg/mL and 11.3 µM
2.3 mg/kg/day, M, 5 days, individual rats
  Plasma Conc.: 3.35 µg/mL and 5.06 µM and 3.50 µg/mL and 5.29 µM and 5.04 µg/mL and 7.61 µM
6.3 mg/kg/day, F, 2 hours, individual rats
  Plasma Conc.: 19.5 µg/mL and 29.5 µM and 43.9 µg/mL and 66.4 µM and 41.1 µg/mL and 62.0 µM and 36.3 µg/mL and 54.9 µM
6.3 mg/kg/day, F, 5 days of exposure, mean ± SD n=4
  5D Plasma Conc.: 52.6 ± 14.3 µM
6.3 mg/kg/day, M, 2 hours, individual rats
  Plasma Conc.: 24.4 µg/mL and 36.8 µM and 17.1 µg/mL and 25.8 µM and 24.9 µg/mL and 37.7 µM
6.3 mg/kg/day, M, 5 days, individual rats
  Plasma Conc.: 15.5 µg/mL and 15.1 µg/mL and 22.9 µM and 23.8 µM and 18.5 µg/mL and 28.0 µM
17 mg/kg/day, F, 2 h after first dose, mean ± SD n=4
  2 h Plasma Conc.: 224 ± 76 µM
17 mg/kg/day, F, 2 hours, individual rats
  Plasma Conc.: 197 µg/mL and 298 µM and 184 µg/mL and 278 µM and 94.0 µg/mL and 142 µM and 118 µg/mL and 179 µM
17 mg/kg/day, F, 5 days of exposure, mean ± SD n=4
  5D Plasma Conc.: 278 ± 28 µM
17 mg/kg/day, M, 2 h after first dose, mean ± SD n=4
  2 h Plasma Conc.: 126 ± 62 µM
17 mg/kg/day, M, 2 hours, individual rats
  Plasma Conc.: 60.6 µg/mL and 91.6 µM and 55.8 µg/mL and 84.3 µM and 73.0 µg/mL and 110 µM and 218 µM
17 mg/kg/day, M, 5 days of exposure, mean ± SD n=4
  5D Plasma Conc.: 168 ± 53 µM
17 mg/kg/day, M, 5 days of exposure, mean ± SD n=4, read-out: 5D Plasma Conc.
  concentration at 5 days: 168000 nM
17 mg/kg/day, M, 5 days, individual rats
  Plasma Conc.: 65.4 µg/mL and 98.9 µM and 109 µg/mL and 165 µM and 150 µg/mL and 227 µM and 118 µg/mL and 179 µM
female, Sprague Dawley, rat, plasma, oral, 0.3 mg/kg/day, F, 2 h after first dose, mean ± SD n=4, read-out: 2 h Plasma Conc.
  concentration at 2 h: 0.137 ± 0.033 µM
female, Sprague Dawley, rat, plasma, oral, 0.3 mg/kg/day, F, 2 hours, individual rats, read-out: Plasma Conc.
  concentration at 2 h: 82 ng/mL and 124 nM
female, Sprague Dawley, rat, plasma, oral, 0.3 mg/kg/day, F, 5 days, individual rats, read-out: Plasma Conc.
  concentration at 5 days: 550 ng/mL and 831 nM
female, Sprague Dawley, rat, plasma, oral, 0.9 mg/kg/day, F, 2 h after first dose, mean ± SD n=4, read-out: 2 h Plasma Conc.
  concentration at 2 h: 0.62 ± 0.133 µM
female, Sprague Dawley, rat, plasma, oral, 0.9 mg/kg/day, F, 2 hours, individual rats, read-out: Plasma Conc.
  concentration at 2 h: 523 ng/mL and 790 nM
female, Sprague Dawley, rat, plasma, oral, 0.9 mg/kg/day, F, 5 days of exposure, mean ± SD n=4, read-out: 5D Plasma Conc.
  concentration at 5 days: 3620 ± 910 nM
female, Sprague Dawley, rat, plasma, oral, 0.9 mg/kg/day, F, 5 days, individual rats, read-out: Plasma Conc.
  concentration at 5 days: 1870 ng/mL and 2.83 µM
female, Sprague Dawley, rat, plasma, oral, 2.3 mg/kg/day, F, 2 h after first dose, mean ± SD n=4, read-out: 2 h Plasma Conc.
  concentration at 2 h: 15.1 ± 5.3 µM
female, Sprague Dawley, rat, plasma, oral, 2.3 mg/kg/day, F, 5 days of exposure, mean ± SD n=4, read-out: 5D Plasma Conc.
  concentration at 5 days: 8920 ± 2360 nM
female, Sprague Dawley, rat, plasma, oral, 2.3 mg/kg/day, F, 5 days, individual rats, read-out: Plasma Conc.
  concentration at 5 days: 5700 ng/mL and 8.62 µM
female, Sprague Dawley, rat, plasma, oral, 6.3 mg/kg/day, F, 2 h after first dose, mean ± SD n=4, read-out: 2 h Plasma Conc.
  concentration at 2 h: 53.2 ± 16.5 µM
female, Sprague Dawley, rat, plasma, oral, 6.3 mg/kg/day, F, 5 days of exposure, mean ± SD n=4, read-out: 5D Plasma Conc.
  concentration at 5 days: 52600 ± 14300 nM
female, Sprague Dawley, rat, plasma, oral, 6.3 mg/kg/day, F, 5 days, individual rats, read-out: Plasma Conc.
  concentration at 5 days: 33900 ng/mL and 51.2 µM
female, Sprague Dawley, rat, plasma, oral, 17 mg/kg/day, F, 2 h after first dose, mean ± SD n=4, read-out: 2 h Plasma Conc.
  concentration at 2 h: 224 ± 76 µM
female, Sprague Dawley, rat, plasma, oral, 17 mg/kg/day, F, 5 days, individual rats, read-out: Plasma Conc.
  concentration at 5 days: 200000 ng/mL and 302 µM
male, Sprague Dawley, rat, plasma, oral, 0.3 mg/kg/day, M, 2 h after first dose, mean ± SD n=4, read-out: 2 h Plasma Conc.
  concentration at 2 h: 0.15 ± 0.02 µM
male, Sprague Dawley, rat, plasma, oral, 0.3 mg/kg/day, M, 2 hours, individual rats, read-out: Plasma Conc.
  concentration at 2 h: 117 ng/mL and 176 nM
male, Sprague Dawley, rat, plasma, oral, 0.3 mg/kg/day, M, 5 days, individual rats, read-out: Plasma Conc.
  concentration at 5 days: 558 ng/mL and 843 nM
male, Sprague Dawley, rat, plasma, oral, 0.9 mg/kg/day, M, 2 h after first dose, mean ± SD n=4, read-out: 2 h Plasma Conc.
  concentration at 2 h: 0.573 ± 0.113 µM
male, Sprague Dawley, rat, plasma, oral, 0.9 mg/kg/day, M, 2 hours, individual rats, read-out: Plasma Conc.
  concentration at 2 h: 431 ng/mL and 651 nM
male, Sprague Dawley, rat, plasma, oral, 0.9 mg/kg/day, M, 5 days, individual rats, read-out: Plasma Conc.
  concentration at 5 days: 1870 ng/mL and 2.83 µM
male, Sprague Dawley, rat, plasma, oral, 2.3 mg/kg/day, M, 2 h after first dose, mean ± SD n=4, read-out: 2 h Plasma Conc.
  concentration at 2 h: 13.1 ± 2.8 µM
male, Sprague Dawley, rat, plasma, oral, 2.3 mg/kg/day, M, 2 hours, individual rats, read-out: Plasma Conc.
  concentration at 2 h: 7650 ng/mL and 11.6 µM
male, Sprague Dawley, rat, plasma, oral, 2.3 mg/kg/day, M, 5 days of exposure, mean ± SD n=4, read-out: 5D Plasma Conc.
  concentration at 5 days: 6640 ± 1730 nM
male, Sprague Dawley, rat, plasma, oral, 2.3 mg/kg/day, M, 5 days, individual rats, read-out: Plasma Conc.
  concentration at 5 days: 5680 ng/mL and 8.58 µM
male, Sprague Dawley, rat, plasma, oral, 6.3 mg/kg/day, M, 2 h after first dose, mean ± SD n=4, read-out: 2 h Plasma Conc.
  concentration at 2 h: 34 ± 5.5 µM
male, Sprague Dawley, rat, plasma, oral, 6.3 mg/kg/day, M, 2 hours, individual rats, read-out: Plasma Conc.
  concentration at 2 h: 23700 ng/mL and 35.8 µM
male, Sprague Dawley, rat, plasma, oral, 6.3 mg/kg/day, M, 5 days of exposure, mean ± SD n=4, read-out: 5D Plasma Conc.
  concentration at 5 days: 24500 ± 2300 nM
male, Sprague Dawley, rat, plasma, oral, 6.3 mg/kg/day, M, 5 days, individual rats, read-out: Plasma Conc.
  concentration at 5 days: 23300 nM
male, Sprague Dawley, rat, plasma, oral, 17 mg/kg/day, M, 2 h after first dose, mean ± SD n=4, read-out: 2 h Plasma Conc.
  concentration at 2 h: 126 ± 62 µM
